This experiment has as its system human leukocytes (LTB4 production, calcium ionophore stimulated). Nature of the experiment: Human Leukocyte LTB4 Inhibition Assay. It counts as cell-based. The following applies: LTB4 by ELISA, read-out: LTB4 HLA IC50. In outline: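 Human peripheral leukocytes (1.25×10^5 cells/ml) were isolated by dextran sedimentation and hypotonic RBC lysis. They were preincubated with drug 5 min at 37 °C, then stimulated 30 min at 37 °C with calcium ionophore […] (working solution 1.25 mM). Supernatant LTB4 was measured by ELISA. IC50 versus vehicle came from nonlinear regression of % inhibition against log concentration.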

Drawing on patent US20130005721A1, “INDOLIZINE INHIBITORS OF 5-LIPOXYGENASE” (PANMIRA PHARMACEUTICALS, LLC, priority 2009, published 2013), this text covers IC50 for 11 compounds.

Structures are written as SMILES. Like-named read-outs stand apart in the source and are kept apart here. Where only a bound is given, the exact number is not on record here.

Regarding `CCC(O)(c1cn(Cc2ccn3c(Cl)c(C(N)=O)cc3c2)nn1)C(F)(F)F` (single isomer, unassigned) [Compound 1-89, 3-Chloro-7-[4-(1-hydroxy-1-trifluoromethyl-propyl)-[1,2,3]triazol-1-ylmethyl]-indolizine-2-carboxylic acid amide], the IC50 (Leukocyte) was above 1000 nM.

Consider `CCC(O)(c1cn(Cc2ccn3c(-c4ccc(F)cc4)c(COC)cc3c2)nn1)C(F)(F)F` (centres unmarked) [Compound 1-44, 1,1,1-Trifluoro-2-{1-[3-(4-fluoro-phenyl)-2-methoxymethyl-indolizin-7-ylmethyl]-1H-[1,2,3]triazol-4-yl}-butan-2-ol], for which the IC50 (Leukocyte) is below 300 nM.

`CCC(O)(c1cn(Cc2ccn3c(-c4ccc(F)cc4)c(-c4nn[nH]n4)cc3c2)nn1)C(F)(F)F` (centres unmarked) [Compound 1-23, 1,1,1-Trifluoro-2-{1-[3-(4-fluoro-phenyl)-2-(2H-tetrazol-5-yl)-indolizin-7-ylmethyl]-1H-[1,2,3]triazol-4-yl}-butan-2-ol]: the IC50 (Leukocyte) is above 1000 nM.

Regarding `CCC(O)(c1cn(Cc2ccn3c(-c4ccc(F)cc4)c(C(=O)O)cc3c2)nn1)C(F)(F)F` (centres unmarked) [Compound 1-5, 3-(4-Fluoro-phenyl)-7-[4-(1-hydroxy-1-trifluoromethyl-propyl)-[1,2,3]triazol-1-ylmethyl]-indolizine-2-carboxylic acid], under “Leukocyte”, the IC50 was in the range of 300 to 1000 nM.

`CCC(O)(c1cn(Cc2ccn3c(-c4ccc(OC)nc4)c(C#N)cc3c2)nn1)C(F)(F)F` (single isomer, unassigned) [Compound 1-79, 7-[4-(1-Hydroxy-1-trifluoromethyl-propyl)-[1,2,3]triazol-1-ylmethyl]-3-(6-methoxy-pyridin-3-yl)-indolizine-2-carbonitrile]: the IC50 (Leukocyte) was below 300 nM.

With `CCC(O)(c1cn(Cc2ccn3c(-c4ccc(F)cc4)c(C(C)=O)cc3c2)nn1)C(F)(F)F` (centres unmarked) [Compound 1-54, 1-{3-(4-Fluoro-phenyl)-7-[4-(1-hydroxy-1-trifluoromethyl-propyl)-[1,2,3]triazol-1-ylmethyl]-indolizin-2-yl}-ethanone], the IC50 (Leukocyte) is below 300 nM.

Consider `CCOC(=O)c1nc2cc(CNc3nnc(C(O)(CC)C(F)(F)F)o3)ccn2c1-c1ccccc1` (centres unmarked) [Compound 1-12, 7-{[5-(1-Hydroxy-1-trifluoromethyl-propyl)-[1,3,4]oxadiazol-2-ylamino]-methyl}-3-phenyl-imidazo[1,2-a]pyridine-2-carboxylic acid ethyl ester], for which the IC50 (Leukocyte) was below 300 nM.

On to `CCC(O)(c1cn(Cc2ccn3c(-c4ccc(F)cc4)c(C(N)=O)cc3c2)nn1)C(F)(F)F` (single isomer, unassigned) [Compound 1-10, 3-(4-Fluoro-phenyl)-7-[4-(1-hydroxy-1-trifluoromethyl-propyl)-[1,2,3]triazol-1-ylmethyl]-indolizine-2-carboxylic acid amide], for which the IC50 was below 300 nM.

In the case of `CCC(O)(c1cn(Cc2ccn3c(C(C)=O)c(C(=O)OC)cc3c2)nn1)C(F)(F)F` (centres unmarked) [Compound 1-66, 3-Acetyl-7-[4-(1-hydroxy-1-trifluoromethyl-propyl)-[1,2,3]triazol-1-ylmethyl]-indolizine-2-carboxylic acid methyl ester], where the note is “Leukocyte”, the IC50 was below 300 nM.

Regarding `CCC(O)(c1cn(Cc2ccn3c(-c4ccc(OC)nc4)c(C#N)cc3c2)nn1)C(F)(F)F` (centres unmarked) [Compound 1-57, 7-[4-(1-Hydroxy-1-trifluoromethyl-propyl)-[1,2,3]triazol-1-ylmethyl]-3-(6-methoxy-pyridin-3-yl)-indolizine-2-carbonitrile], for the setting “Leukocyte”, the IC50 was below 300 nM.

As to `CCC(O)(c1cn(Cc2ccn3c(-c4ccc(F)nc4)c(C#N)cc3c2)nn1)C(F)(F)F` (centres unmarked) [Compound 1-32, 3-(6-Fluoro-pyridin-3-yl)-7-[4-(1-hydroxy-1-trifluoromethyl-propyl)-[1,2,3]triazol-1-ylmethyl]-indolizine-2-carbonitrile], for the setting “Leukocyte”, the IC50 is below 300 nM.
